The subject of this test is MV-4-11 cells. The experiment in a line: Gene expression microarray analysis (Affymetrix PrimeView) and GSEA. Format: cell-based, human. The arrangement: RFU PODN (11730768_x_at) / Fold change /veh PODN (11730768_x_at) / RFU LINC00158 (11744669_a_at) / Fold change /veh LINC00158 (11744669_a_at) / RFU DUSP10 (11751237_a_at) / Fold change /veh DUSP10 (11751237_a_at) / RFU ID3 (11757404_x_at) / Fold change /veh ID3 (11757404_x_at) / RFU PLEKHG5 (11737974_s_at) / Fold change /veh PLEKHG5 (11737974_s_at) / RFU LRRC4B (11730491_at) / Fold change /veh LRRC4B (11730491_at) / RFU GIMAP4 (11747438_a_at) / Fold change /veh GIMAP4 (11747438_a_at) / RFU KRT8 (11758183_x_at) / Fold change /veh KRT8 (11758183_x_at) / RFU CNN1 (11734310_a_at) / Fold change /veh CNN1 (11734310_a_at) / RFU VPS37D (11726825_at) / Fold change /veh VPS37D (11726825_at) / RFU C10orf10 (11716522_x_at) / Fold change /veh C10orf10 (11716522_x_at) / RFU KIR2DL2 /// KIR2DL4 /// KIR2DL5A /// KIR2DL5B /// KIR2DS1 /// KIR2DS2 /// KIR2DS3 /// KIR2DS4 /// KIR3DL3 /// KIR3DL3 /// KIR3DS1 (11738374_at) / Fold change /veh KIR2DL2 /// KIR2DL4 /// KIR2DL5A /// KIR2DL5B /// KIR2DS1 /// KIR2DS2 /// KIR2DS3 /// KIR2DS4 /// KIR3DL3 /// KIR3DL3 /// KIR3DS1 (11738374_at) / RFU C1QL1 (11718748_at) / Fold change /veh C1QL1 (11718748_at) / RFU TMPRSS4 (11747572_a_at) / Fold change /veh TMPRSS4 (11747572_a_at) / RFU HAMP (11756126_x_at) / Fold change /veh HAMP (11756126_x_at) / RFU RNFT2 (11725882_a_at) / Fold change /veh RNFT2 (11725882_a_at) / RFU NR4A2 (11747474_a_at) / Fold change /veh NR4A2 (11747474_a_at) / RFU ABCC12 (11746883_a_at) / Fold change /veh ABCC12 (11746883_a_at) / RFU TMEM136 (11760407_x_at) / Fold change /veh TMEM136 (11760407_x_at) / RFU CLDN22 /// WWC2 (11732394_at) / Fold change /veh CLDN22 /// WWC2 (11732394_at) / RFU HLA-DPB1 (11760878_x_at) / Fold change /veh HLA-DPB1 (11760878_x_at) / RFU SPINT1 (11716480_a_at) / Fold change /veh SPINT1 (11716480_a_at) / RFU GAP43 (11754022_s_at) / Fold change /veh GAP43 (11754022_s_at) / RFU A4GNT (11735810_at) / Fold change /veh A4GNT (11735810_at) / RFU PRB3 (11715151_x_at) / Fold change /veh PRB3 (11715151_x_at) / RFU TUBB4B (11761932_at) / Fold change /veh TUBB4B (11761932_at) / RFU CAPN14 (11732068_a_at) / Fold change /veh CAPN14 (11732068_a_at) / RFU TMCC2 (11721928_a_at) / Fold change /veh TMCC2 (11721928_a_at) / RFU IRGQ (11745062_a_at) / Fold change /veh IRGQ (11745062_a_at) / RFU FAM174B (11720279_a_at) / Fold change /veh FAM174B (11720279_a_at) / RFU TMPRSS4 (11748680_a_at) / Fold change /veh TMPRSS4 (11748680_a_at) / RFU FAM212B (11763350_a_at) / Fold change /veh FAM212B (11763350_a_at) / RFU PLEKHG5 (11743358_a_at) / Fold change /veh PLEKHG5 (11743358_a_at) / RFU ZSCAN30 (11745921_a_at) / Fold change /veh ZSCAN30 (11745921_a_at) / RFU CMKLR1 (11741424_a_at) / Fold change /veh CMKLR1 (11741424_a_at) / RFU LOC101060620 /// MAPK8IP1 (11723275_at) / Fold change /veh LOC101060620 /// MAPK8IP1 (11723275_at) / RFU SPTSSB (11747773_x_at) / Fold change /veh SPTSSB (11747773_x_at) / RFU PRSS12 (11739890_at) / Fold change /veh PRSS12 (11739890_at) / RFU BIN1 (11741810_x_at) / Fold change /veh BIN1 (11741810_x_at) / RFU WNT11 (11732464_a_at) / Fold change /veh WNT11 (11732464_a_at) / RFU C10orf10 (11716521_a_at) / Fold change /veh C10orf10 (11716521_a_at) / RFU C5orf56 (11738089_at) / Fold change /veh C5orf56 (11738089_at) / RFU CYB561 (11721691_x_at) / Fold change /veh CYB561 (11721691_x_at) / RFU ANKRD19P (11752326_a_at) / Fold change /veh ANKRD19P (11752326_a_at) / RFU OR2T12 /// OR2T33 /// OR2T8 (11738714_s_at) / Fold change /veh OR2T12 /// OR2T33 /// OR2T8 (11738714_s_at) / RFU VCAN (11748164_a_at) / Fold change /veh VCAN (11748164_a_at) / RFU JSRP1 (11732532_at) / Fold change /veh JSRP1 (11732532_at) / RFU KRTAP10-11 (11738290_x_at) / Fold change /veh KRTAP10-11 (11738290_x_at) / RFU MYO3A (11730013_a_at) / Fold change /veh MYO3A (11730013_a_at) / RFU EBF3 (11725865_a_at) / Fold change /veh EBF3 (11725865_a_at) / RFU CAMK2N1 (11719241_x_at) / Fold change /veh CAMK2N1 (11719241_x_at) / RFU C5orf56 (11738088_a_at) / Fold change /veh C5orf56 (11738088_a_at) / RFU OLFML3 (11715873_a_at) / Fold change /veh OLFML3 (11715873_a_at) / RFU LOC100653217 /// NTM (11731650_a_at) / Fold change /veh LOC100653217 /// NTM (11731650_a_at) / RFU MAPK11 (11762145_a_at) / Fold change /veh MAPK11 (11762145_a_at) / RFU FIZ1 (11724087_x_at) / Fold change /veh FIZ1 (11724087_x_at) / RFU OASL (11726364_x_at) / Fold change /veh OASL (11726364_x_at) / RFU SOX15 (11748057_x_at) / Fold change /veh SOX15 (11748057_x_at) / RFU CD79A (11719716_a_at) / Fold change /veh CD79A (11719716_a_at) / RFU HIST1H1D (11736915_at) / Fold change /veh HIST1H1D (11736915_at) / RFU CASKIN2 (11723855_a_at) / Fold change /veh CASKIN2 (11723855_a_at) / RFU LOC730098 (11760151_x_at) / Fold change /veh LOC730098 (11760151_x_at) / RFU OR4N2 (11742367_at) / Fold change /veh OR4N2 (11742367_at) / RFU PRRT2 (11749266_a_at) / Fold change /veh PRRT2 (11749266_a_at) / RFU SNX32 (11753110_a_at) / Fold change /veh SNX32 (11753110_a_at) / RFU CDHR5 (11726645_a_at) / Fold change /veh CDHR5 (11726645_a_at) / RFU RCAN1 (11760418_a_at) / Fold change /veh RCAN1 (11760418_a_at) / RFU FAM167A (11723789_a_at) / Fold change /veh FAM167A (11723789_a_at) / RFU FAM26E (11764081_at) / Fold change /veh FAM26E (11764081_at) / RFU ISYNA1 (11749810_s_at) / Fold change /veh ISYNA1 (11749810_s_at) / RFU ACY1 (11761880_at) / Fold change /veh ACY1 (11761880_at) / RFU 11764098_at / Fold change /veh 11764098_at / RFU SAMD14 (11745864_x_at) / Fold change /veh SAMD14 (11745864_x_at) / RFU NPB (11741838_a_at) / Fold change /veh NPB (11741838_a_at) / RFU TMPRSS6 (11731388_a_at) / Fold change /veh TMPRSS6 (11731388_a_at) / RFU KRTAP10-2 (11738614_at) / Fold change /veh KRTAP10-2 (11738614_at) / RFU ARHGAP8 /// PRR5-ARHGAP8 (11727945_x_at) / Fold change /veh ARHGAP8 /// PRR5-ARHGAP8 (11727945_x_at) / RFU KRTAP5-7 /// NADSYN1 (11734609_at) / Fold change /veh KRTAP5-7 /// NADSYN1 (11734609_at) / RFU RASL12 (11751679_a_at) / Fold change /veh RASL12 (11751679_a_at) / RFU CDKN2B (11736163_a_at) / Fold change /veh CDKN2B (11736163_a_at) / RFU PRF1 (11729649_at) / Fold change /veh PRF1 (11729649_at) / RFU, ZNF638 /// ZNF638-IT1 / Fold change vs veh, ZNF638 /// ZNF638-IT1 / RFU, PANK3 / Fold change vs veh, PANK3 / RFU, SH3YL1 / Fold change vs veh, SH3YL1 / RFU, ZEB2 / Fold change vs veh, ZEB2 / RFU, NRIP1 / Fold change vs veh, NRIP1 / RFU, PTTG1IP / Fold change vs veh, PTTG1IP / RFU, CAPN2 / Fold change vs veh, CAPN2 / RFU, MED14 / Fold change vs veh, MED14 / RFU, SNORA58 / Fold change vs veh, SNORA58 / RFU, C1orf63 / Fold change vs veh, C1orf63 / RFU, LRRFIP1 / Fold change vs veh, LRRFIP1 / RFU, NDUFAF7 / Fold change vs veh, NDUFAF7 / RFU, SLC12A2 / Fold change vs veh, SLC12A2 / RFU, IBTK / Fold change vs veh, IBTK / RFU, ESF1 / Fold change vs veh, ESF1 / Fold change vs veh, TMEM50B / RFU, TAOK1 / Fold change vs veh, TAOK1 / RFU, ACBD3 / Fold change vs veh, ACBD3 / RFU, TMA16 / Fold change vs veh, TMA16 / RFU, RWDD3 / Fold change vs veh, RWDD3 / RFU, BCAT1 / Fold change vs veh, BCAT1 / RFU, EDEM3 / Fold change vs veh, EDEM3 / RFU, TMEM33 / Fold change vs veh, TMEM33 / RFU, WDR75 / Fold change vs veh, WDR75 / RFU, AHCTF1 / Fold change vs veh, AHCTF1 / RFU, TFRC / Fold change vs veh, TFRC / RFU, ZDHHC17 / Fold change vs veh, ZDHHC17 / RFU, NOM1 / Fold change vs veh, NOM1 / RFU, ARL8B / Fold change vs veh, ARL8B / RFU, ZBTB11 / Fold change vs veh, ZBTB11 / RFU, TAMM41 / Fold change vs veh, TAMM41 / RFU, KIAA1704 /// LOC100996395 / Fold change vs veh, KIAA1704 /// LOC100996395 / RFU, ING1 / Fold change vs veh, ING1 / RFU, TRMT61B / Fold change vs veh, TRMT61B / RFU, FUBP3 / Fold change vs veh, FUBP3 / RFU, TP53 / Fold change vs veh, TP53 / RFU, TNKS2 / Fold change vs veh, TNKS2 / RFU, ZFP14 / Fold change vs veh, ZFP14 / RFU, ACTR2 / Fold change vs veh, ACTR2 / RFU, PPP3R1 / Fold change vs veh, PPP3R1 / RFU, PIK3R1 / Fold change vs veh, PIK3R1 / RFU, HNRNPA1 / Fold change vs veh, HNRNPA1 / RFU, RNF170 / Fold change vs veh, RNF170 / RFU, ZNF28 / Fold change vs veh, ZNF28 / RFU, RNGTT / Fold change vs veh, RNGTT / RFU, OGT / Fold change vs veh, OGT / RFU, BRD1 / Fold change vs veh, BRD1 / RFU, MARS / Fold change vs veh, MARS / RFU, ZNF655 / Fold change vs veh, ZNF655 / RFU, FAHD1 / Fold change vs veh, FAHD1 / RFU, BDP1 / Fold change vs veh, BDP1 / RFU, LRRCC1 / Fold change vs veh, LRRCC1 / RFU, ARID1A / Fold change vs veh, ARID1A / RFU, ZNF146 / Fold change vs veh, ZNF146 / RFU, ZNF330 / Fold change vs veh, ZNF330 / RFU, GPN3 / Fold change vs veh, GPN3 / RFU, C9orf123 / Fold change vs veh, C9orf123 / RFU, N4BP2L2 / Fold change vs veh, N4BP2L2 / RFU, ARFIP1 / Fold change vs veh, ARFIP1 / RFU, FAM179B / Fold change vs veh, FAM179B / RFU, BCL10 / Fold change vs veh, BCL10 / RFU, UHRF1BP1L / Fold change vs veh, UHRF1BP1L / RFU, BET1 / Fold change vs veh, BET1 / RFU, CNOT2 / Fold change vs veh, CNOT2 / RFU, ZNF268 / Fold change vs veh, ZNF268 / Fold change vs veh, ZNF507 / RFU, DGCR2 / Fold change vs veh, DGCR2 / RFU, WDSUB1 / Fold change vs veh, WDSUB1 / Fold change vs veh, HSP90B1 /// MIR3652 / RFU, ADSS / Fold change vs veh, ADSS / RFU, GK / Fold change vs veh, GK / RFU, ZNF148 / Fold change vs veh, ZNF148 / RFU, TAF9 / Fold change vs veh, TAF9 / RFU, SLC1A5 / Fold change vs veh, SLC1A5 / RFU, SLMO2 / Fold change vs veh, SLMO2 / RFU, ABCC4 / Fold change vs veh, ABCC4 / RFU, LOC101060439 /// RAP1B / Fold change vs veh, LOC101060439 /// RAP1B / RFU, RFX7 / Fold change vs veh, RFX7 / RFU, GTPBP10 / Fold change vs veh, GTPBP10 / RFU, CNEP1R1 / Fold change vs veh, CNEP1R1 / RFU, BIVM-ERCC5 /// ERCC5 / Fold change vs veh, BIVM-ERCC5 /// ERCC5 / RFU, ILF3 / Fold change vs veh, ILF3 / RFU 11762660_at / Fold change /veh 11762660_at / RFU VCAN (11757783_s_at) / Fold change /veh VCAN (11757783_s_at) / RFU DDX43 (11728927_at) / Fold change /veh DDX43 (11728927_at) / RFU KRT8 (11758188_x_at) / Fold change /veh KRT8 (11758188_x_at) / RFU NKD1 (11759106_at) / Fold change /veh NKD1 (11759106_at) / RFU SRD5A1 (11742802_a_at) / Fold change /veh SRD5A1 (11742802_a_at) / RFU TPSAB1 /// TPSB2 (11721975_s_at) / Fold change /veh TPSAB1 /// TPSB2 (11721975_s_at) / RFU GSTM3 (11746129_a_at) / Fold change /veh GSTM3 (11746129_a_at) / RFU IL23R (11737362_x_at) / Fold change /veh IL23R (11737362_x_at) / RFU TMEM51 (11727254_a_at) / Fold change /veh TMEM51 (11727254_a_at) / RFU PIWIL2 (11732686_x_at) / Fold change /veh PIWIL2 (11732686_x_at) / RFU ORM1 (11744905_x_at) / Fold change /veh ORM1 (11744905_x_at) / RFU CCDC152 (11743942_at) / Fold change /veh CCDC152 (11743942_at) / RFU ECM1 (11717891_a_at) / Fold change /veh ECM1 (11717891_a_at) / RFU IL23R (11748794_a_at) / Fold change /veh IL23R (11748794_a_at) / RFU TNFAIP8L3 (11732012_x_at) / Fold change /veh TNFAIP8L3 (11732012_x_at) / RFU MBOAT4 (11741988_at) / Fold change /veh MBOAT4 (11741988_at) / RFU 11764193_at / Fold change /veh 11764193_at / RFU TMEM53 (11763286_at) / Fold change /veh TMEM53 (11763286_at) / RFU MAGEB2 (11727129_at) / Fold change /veh MAGEB2 (11727129_at) / RFU TMEM200A (11744735_a_at) / Fold change /veh TMEM200A (11744735_a_at) / RFU CCDC152 (11751479_a_at) / Fold change /veh CCDC152 (11751479_a_at) / RFU FAM211A (11726209_a_at) / Fold change /veh FAM211A (11726209_a_at) / RFU RGS16 (11746705_a_at) / Fold change /veh RGS16 (11746705_a_at) / RFU VCAN (11755009_s_at) / Fold change /veh VCAN (11755009_s_at) / RFU RHOB (11743442_s_at) / Fold change /veh RHOB (11743442_s_at) / RFU RGS16 (11720943_a_at) / Fold change /veh RGS16 (11720943_a_at) / RFU RGS16 (11720944_at) / Fold change /veh RGS16 (11720944_at) / RFU, VPS4B / Fold change vs veh, VPS4B / RFU, CREB1 / Fold change vs veh, CREB1 / RFU, DNAJC13 / Fold change vs veh, DNAJC13 / RFU, GNAQ / Fold change vs veh, GNAQ / RFU, CDK5R1 / Fold change vs veh, CDK5R1 / RFU, ZRANB3 / Fold change vs veh, ZRANB3 / RFU, CUL4A / Fold change vs veh, CUL4A / RFU, CCNY / Fold change vs veh, CCNY / RFU, UFL1 / Fold change vs veh, UFL1 / RFU, COG3 / Fold change vs veh, COG3 / RFU, DIAPH2 / Fold change vs veh, DIAPH2 / RFU, SKA2 / Fold change vs veh, SKA2 / RFU, AFF3 / Fold change vs veh, AFF3 / RFU, LMF1 / Fold change vs veh, LMF1 / RFU, IPO11 / Fold change vs veh, IPO11 / RFU, DFFB / Fold change vs veh, DFFB / RFU, FOXP1 / Fold change vs veh, FOXP1 / RFU, CARD8 / Fold change vs veh, CARD8 / RFU, STRN3 / Fold change vs veh, STRN3 / RFU, ADK / Fold change vs veh, ADK / RFU, RASSF2 / Fold change vs veh, RASSF2 / RFU, WIPF1 / Fold change vs veh, WIPF1 / RFU, LARP1B / Fold change vs veh, LARP1B / RFU, RASA1 / Fold change vs veh, RASA1 / RFU, RB1 / Fold change vs veh, RB1 / RFU, PPFIA1 / Fold change vs veh, PPFIA1 / RFU, MAT2A / Fold change vs veh, MAT2A / RFU, CCT5 / Fold change vs veh, CCT5 / RFU, WDR92 / Fold change vs veh, WDR92 / RFU, CUX1 / Fold change vs veh, CUX1 / RFU, TTC7A / Fold change vs veh, TTC7A / RFU, TMEM135 / Fold change vs veh, TMEM135 / RFU, DEPTOR / Fold change vs veh, DEPTOR / RFU, CPM / Fold change vs veh, CPM / RFU, DNAJB6 / Fold change vs veh, DNAJB6 / RFU, CACNA2D3 / Fold change vs veh, CACNA2D3 / RFU, DTX4 / Fold change vs veh, DTX4 / RFU, TFCP2 / Fold change vs veh, TFCP2 / RFU, GMCL1 /// GMCL1P1 / Fold change vs veh, GMCL1 /// GMCL1P1 / RFU, AEBP2 / Fold change vs veh, AEBP2 / RFU, SNHG1 /// SNORD22 /// SNORD25 /// SNORD26 /// SNORD27 /// SNORD28 /// SNORD29 /// SNORD31 / Fold change vs veh, SNHG1 /// SNORD22 /// SNORD25 /// SNORD26 /// SNORD27 /// SNORD28 /// SNORD29 /// SNORD31 / Fold change (Aza/veh), C12orf56 (ProbeSet 11735607_a_at) / Fold change (ACY-1035/veh), C12orf56 (ProbeSet 11735607_a_at) / Fold change (Aza/veh), FGFR1OP (ProbeSet 11751329_s_at) / Fold change (ACY-1035/veh), FGFR1OP (ProbeSet 11751329_s_at) / Fold change (Aza/veh), VPS36 (ProbeSet 11739960_a_at) / Fold change (ACY-1035/veh), VPS36 (ProbeSet 11739960_a_at) / RFU SYPL1 (11715823_x_at) / Fold change /veh SYPL1 (11715823_x_at) / RFU IGFBP7 (11715501_s_at) / Fold change /veh IGFBP7 (11715501_s_at) / RFU REEP3 (11722064_at) / Fold change /veh REEP3 (11722064_at) / RFU IGLL1 (11728026_x_at) / Fold change /veh IGLL1 (11728026_x_at): dose or concentration left out as unconfirmed. Particulars: ProbeSet 11743567_s_at; LIST B.

The text below walks through data of article PMC5218480 (PLoS ONE, 2017).

SMILES strings stand for the structures.

In the case of `Nc1ccc(-c2cccs2)cc1NC(=O)c1ccc2c(c1)cc(C1CC1)n2CCN1CCOCC1` [ACY-1035], the “RFU, ACBD3” value came to 241.56 RFU.
